The values that follow come from ChEMBL document CHEMBL3991601, “The target landscape of clinical kinase drugs” (Science, 2017).

pKd: −log10 of the molar value. Counter-ions that a name gives are not always drawn. Activity calls are given as the source filed them. On the calls: in the data inactive means no Kd found up to 30 µM.

For test [1], the target named is Serine/threonine-protein kinase PAK 6 (Homo sapiens, UniProt Q9NQU5).
The target of test [2] is Serine/threonine-protein kinase pim-2 (Homo sapiens, UniProt Q9P1W9).
Chain of Serine/threonine-protein kinase pim-2 (Q9P1W9 whole entry): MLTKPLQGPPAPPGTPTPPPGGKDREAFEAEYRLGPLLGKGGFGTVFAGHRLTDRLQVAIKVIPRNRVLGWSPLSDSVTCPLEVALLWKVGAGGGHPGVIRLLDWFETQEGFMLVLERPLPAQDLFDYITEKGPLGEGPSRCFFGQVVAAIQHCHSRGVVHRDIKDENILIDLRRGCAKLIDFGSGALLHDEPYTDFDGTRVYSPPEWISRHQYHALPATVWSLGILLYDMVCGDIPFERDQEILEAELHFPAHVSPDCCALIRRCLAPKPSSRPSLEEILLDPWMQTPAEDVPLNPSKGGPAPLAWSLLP
Test [3] addresses Serine/threonine-protein kinase Nek7 (Homo sapiens, UniProt Q8TDX7).
Test [4] has as its target T1, Long-chain-fatty-acid--CoA ligase 5 (Homo sapiens, UniProt Q9ULC5).
T1 sequence (Q9ULC5 whole entry): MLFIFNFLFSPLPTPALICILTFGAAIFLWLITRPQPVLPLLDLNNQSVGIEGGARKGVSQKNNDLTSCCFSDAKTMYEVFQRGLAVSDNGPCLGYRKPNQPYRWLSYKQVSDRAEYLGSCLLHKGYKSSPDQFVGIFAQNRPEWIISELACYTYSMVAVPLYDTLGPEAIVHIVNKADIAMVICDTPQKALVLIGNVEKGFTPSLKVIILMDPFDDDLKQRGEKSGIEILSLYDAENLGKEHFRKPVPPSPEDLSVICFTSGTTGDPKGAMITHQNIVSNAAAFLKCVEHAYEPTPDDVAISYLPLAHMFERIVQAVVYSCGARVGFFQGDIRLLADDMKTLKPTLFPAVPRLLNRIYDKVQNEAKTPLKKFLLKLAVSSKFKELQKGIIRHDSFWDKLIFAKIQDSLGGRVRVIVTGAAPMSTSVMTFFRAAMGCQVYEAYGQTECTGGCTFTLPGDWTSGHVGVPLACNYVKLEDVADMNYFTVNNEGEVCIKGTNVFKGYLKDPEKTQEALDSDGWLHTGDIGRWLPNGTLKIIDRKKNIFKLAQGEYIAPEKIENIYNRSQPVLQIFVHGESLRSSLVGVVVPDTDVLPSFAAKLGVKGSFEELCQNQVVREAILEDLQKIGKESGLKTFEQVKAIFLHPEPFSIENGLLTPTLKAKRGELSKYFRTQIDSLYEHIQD

Test [5] addresses Serine/threonine-protein kinase N3 (Homo sapiens, UniProt Q6P5Z2).
The target of test [6] is T2, Electron transfer flavoprotein subunit beta (Homo sapiens, UniProt P38117).
T2 sequence (P38117 whole entry): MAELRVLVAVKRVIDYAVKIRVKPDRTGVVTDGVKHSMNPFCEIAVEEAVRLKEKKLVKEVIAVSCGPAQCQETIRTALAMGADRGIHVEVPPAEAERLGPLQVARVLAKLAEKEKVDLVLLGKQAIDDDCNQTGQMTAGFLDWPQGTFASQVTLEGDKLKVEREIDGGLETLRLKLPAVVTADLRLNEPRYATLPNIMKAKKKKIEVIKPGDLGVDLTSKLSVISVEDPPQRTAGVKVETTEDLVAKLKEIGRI

Chain of Serine/threonine-protein kinase N3 (Q6P5Z2 whole entry): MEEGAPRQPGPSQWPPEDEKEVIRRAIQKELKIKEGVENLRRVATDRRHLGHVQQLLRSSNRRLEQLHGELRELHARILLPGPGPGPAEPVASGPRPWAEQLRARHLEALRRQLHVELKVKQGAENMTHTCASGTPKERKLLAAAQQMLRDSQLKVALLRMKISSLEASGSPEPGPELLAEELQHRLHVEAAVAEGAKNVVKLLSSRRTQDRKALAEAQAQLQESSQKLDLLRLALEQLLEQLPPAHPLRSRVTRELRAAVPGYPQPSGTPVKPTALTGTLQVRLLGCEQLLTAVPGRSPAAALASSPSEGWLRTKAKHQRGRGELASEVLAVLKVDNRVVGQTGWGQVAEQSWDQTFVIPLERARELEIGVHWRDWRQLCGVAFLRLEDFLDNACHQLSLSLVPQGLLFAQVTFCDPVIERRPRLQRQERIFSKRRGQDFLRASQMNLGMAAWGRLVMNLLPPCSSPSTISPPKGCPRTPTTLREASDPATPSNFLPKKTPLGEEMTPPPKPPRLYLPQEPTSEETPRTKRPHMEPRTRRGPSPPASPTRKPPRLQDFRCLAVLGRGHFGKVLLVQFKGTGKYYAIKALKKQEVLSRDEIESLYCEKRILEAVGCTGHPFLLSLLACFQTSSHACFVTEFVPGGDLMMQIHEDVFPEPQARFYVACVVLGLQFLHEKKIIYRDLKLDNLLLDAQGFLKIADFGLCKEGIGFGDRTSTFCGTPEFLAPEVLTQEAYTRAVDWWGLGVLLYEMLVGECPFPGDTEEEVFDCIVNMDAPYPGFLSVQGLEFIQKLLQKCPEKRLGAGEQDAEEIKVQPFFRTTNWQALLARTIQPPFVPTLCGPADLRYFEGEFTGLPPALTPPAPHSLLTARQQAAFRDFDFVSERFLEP
Chain of Serine/threonine-protein kinase PAK 6 (Q9NQU5 whole entry): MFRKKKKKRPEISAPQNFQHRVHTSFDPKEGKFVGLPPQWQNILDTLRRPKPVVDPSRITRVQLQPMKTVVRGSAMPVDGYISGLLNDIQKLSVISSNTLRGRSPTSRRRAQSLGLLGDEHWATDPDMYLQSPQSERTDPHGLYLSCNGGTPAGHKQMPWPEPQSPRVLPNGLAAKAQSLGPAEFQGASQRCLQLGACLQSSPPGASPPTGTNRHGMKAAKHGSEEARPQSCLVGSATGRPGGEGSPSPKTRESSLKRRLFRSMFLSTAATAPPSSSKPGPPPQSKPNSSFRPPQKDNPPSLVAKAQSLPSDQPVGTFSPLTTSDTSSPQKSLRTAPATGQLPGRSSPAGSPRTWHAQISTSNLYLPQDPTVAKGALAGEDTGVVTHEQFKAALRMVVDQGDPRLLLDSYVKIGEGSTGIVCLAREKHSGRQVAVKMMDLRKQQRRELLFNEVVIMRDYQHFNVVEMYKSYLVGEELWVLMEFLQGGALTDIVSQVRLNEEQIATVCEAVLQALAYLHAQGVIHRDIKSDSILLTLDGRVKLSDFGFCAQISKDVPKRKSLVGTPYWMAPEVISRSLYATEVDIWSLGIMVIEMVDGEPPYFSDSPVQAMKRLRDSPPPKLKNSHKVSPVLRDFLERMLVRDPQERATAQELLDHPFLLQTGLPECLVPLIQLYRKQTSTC
Chain of Serine/threonine-protein kinase Nek7 (Q8TDX7 whole entry): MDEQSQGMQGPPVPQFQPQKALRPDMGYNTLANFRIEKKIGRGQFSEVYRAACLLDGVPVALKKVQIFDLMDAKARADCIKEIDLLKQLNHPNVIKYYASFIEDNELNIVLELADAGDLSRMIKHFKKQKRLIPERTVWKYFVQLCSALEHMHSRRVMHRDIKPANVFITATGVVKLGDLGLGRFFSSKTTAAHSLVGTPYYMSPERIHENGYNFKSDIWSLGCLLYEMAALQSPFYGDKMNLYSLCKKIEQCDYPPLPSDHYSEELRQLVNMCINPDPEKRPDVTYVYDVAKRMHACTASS

For orientation: Kd means the concentration at which binding is half-saturated. As for `C[C@@H](Oc1cc(C(=O)Nc2ccc(C(=O)N3CCN(C)CC3)cc2)nnc1N)c1c(Cl)ccc(F)c1Cl`, the Kd in test [1], in test [2] and in test [3] was > 30 µM (inactive) in each case.
For `CCNC(=O)C#Cc1ccc2c(c1)NC(=O)/C2=C(\Nc1ccc(CN(C)C)cc1)c1ccccc1`, the Kd in test [4] and in test [3] was > 30 µM (inactive) in each case.
As a reminder, the pKd is the Kd on a negative log10 scale, so that one unit is a factor of ten. On to `Cc1nc2cc(-c3nn(C(C)C)c4ncnc(N)c34)ccc2o1`, for which the Kd in test [1], in test [6] and in test [4] was > 30 µM (inactive) throughout. This compound also gave a negative-log Kd (pKd) in test [5] of 7.89.
Consider `COCc1c(-c2ccc(NC(=O)Nc3cc(C(F)(F)F)ccc3F)c(F)c2)c2c(N)ncnn2c1CN1CCOCC1`, for which the Kd in test [5], in test [6] and in test [4] was > 30 µM (inactive) throughout.
For `C=CC(=O)Nc1cc2c(Nc3ccc(F)c(Cl)c3)ncnc2cc1C#CC(C)(C)N1CCN(C)CC1` [AV-412 FREE BASE], the Kd in test [1], in test [5], in test [4] and in test [2] was > 30 µM (inactive) throughout.
`CNC(=O)c1ccccc1Sc1ccc2c(/C=C/c3ccccn3)n[nH]c2c1` [AXITINIB]: the Kd in test [5], in test [6] and in test [4] was > 30 µM (inactive) in each case.
In the case of `COCC(=O)NC/C=C/c1ccc2ncnc(Nc3ccc(Oc4ccc(C)nc4)c(C)c3)c2c1` [CP-724714], the Kd in test [1], in test [5], in test [6], in test [4] and in test [2] was > 30 µM (inactive) each time.
On to `CCS(=O)(=O)N1CCN(c2ccc(Nc3ncc(C(N)=O)c(NC4CC4)n3)cc2)CC1` [Cerdulatinib Hydrochloride], for which the Kd in test [1], in test [4] and in test [2] was > 30 µM (inactive) throughout.
Consider `Cc1nc2cc(-n3ncc(C(=O)c4cc5ccccc5[nH]4)c3N)ccc2[nH]1` [FGFR INHIBITOR DEBIO 1347], for which the Kd in test [6], in test [4] and in test [2] was > 30 µM (inactive) in each case.
For `C[C@@H](Oc1cc(-n2cnc3ccc(CN4CCN(C)CC4)cc32)sc1C(N)=O)c1ccccc1C(F)(F)F` [GSK-461364], the Kd in test [5], in test [6] and in test [4] was > 30 µM (inactive) in each case.
Turning to `CN(C[C@@H]1COCCO1)S(=O)(=O)Nc1ccc2ccc3ncc(-c4cnn(C)c4)cc3c(=O)c2c1` [MK-2461], the Kd in test [6] and in test [2] was > 30 µM (inactive) in each case.
For the compound `CCCCCCCCCCCCCCCCCCOP(=O)([O-])OC1CC[N+](C)(C)CC1` [PERIFOSINE], the Kd in test [6], in test [4] and in test [2] was > 30 µM (inactive) throughout.
Regarding `O=C(NOCCO)c1cc(CN2OCCCC2=O)c(F)c(F)c1Nc1ccc(I)cc1F` [RO-4987655], the Kd in test [5], in test [6] and in test [4] was > 30 µM (inactive) in each case.
Take `N#CC[C@H](C1CCCC1)n1cc(-c2ncnc3[nH]ccc23)cn1` [RUXOLITINIB]: the Kd in test [6] was > 30 µM (inactive).
Regarding `O=c1[nH]ccc2cc(OC3CCNCC3)ccc12` [SAR-407899 FREE BASE], the Kd in test [1], in test [6], in test [4], in test [2] and in test [3] was > 30 µM (inactive) in each case.
In the case of `Cn1cc(-c2cnn3c(N)c(Br)c([C@@H]4CCCNC4)nc23)cn1` [SCH-900776], the Kd in test [1], in test [6], in test [4] and in test [3] was > 30 µM (inactive) throughout.
Take `CN1C/C=C/CCOc2cccc(c2)-c2ccnc(n2)Nc2cccc(c2)C1` [ZOTIRACICLIB]: the Kd in test [4] and in test [3] was > 30 µM (inactive) throughout.
